From US20250282768A1 (Janssen Pharmaceutica NV, priority 2022, published 2025)

Test system: p-IKKa levels in L363 (NIK translocated multiple myeloma) cells
Test: Assay 2: Effect of compounds on p-IKKa levels in L363 (NIK translocated multiple myeloma) cells
Assay type: cell-based
Conditions: Homo sapiens, L-363, 6 h, read-out: Assay 2 IC50 (nM), p-IKKa (Ser 176/180) in BAFF stimulated L363 cells with MG132, 6 h; average if tested more than once
How it was run: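 L363 cells incubated overnight ± 250 ng/ml BAFF, then 6 h at 37 °C with compound (0.3% DMSO) ± 10 μM MG132. Lysates assayed for p-IKKa (Ser176/180) by AlphaLISA SureFire. IC50 from sigmoidal fit of % inhibition normalized to BAFF/MG132-stimulated and unstimulated controls.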

| Compound | IC50 [nM] |
| --- | --- |
| CN1CC[C@@](O)(c2cc(-c3cccc(-c4ccnc(NC[C@@H]5CCO5)n4)n3)no2)C1=O [Example 360, (R)-3-Hydroxy-1-methyl-3-(3-(6-(2-((((S)-oxetan-2-yl)methyl)amino)pyrimidin-4-yl)pyridin-2-yl)isoxazol-5-yl)pyrrolidin-2-one] | > 500 |
| CN1CC[C@@](O)(c2cc(-c3cccc(-c4ccnc(N[C@@H]5CC6CCC5O6)n4)n3)no2)C1=O (stereo partly drawn) [Example 361, (3R)-3-(3-(6-(2-(((cis)-7-Oxabicyclo[2.2.1]heptan-2-yl)amino)pyrimidin-4-yl)pyridin-2-yl)isoxazol-5-yl)-3-hydroxy-1-methylpyrrolidin-2-one] | 50 to 500 |
| CO[C@@H](C)CNc1nccc(-c2cccc(-c3cc([C@]4(O)CCN(C)C4=O)on3)n2)n1 [Example 362, (R)-3-Hydroxy-3-(3-(6-(2-(((S)-2-methoxypropyl)amino)pyrimidin-4-yl)pyridin-2-yl)isoxazol-5-yl)-1-methylpyrrolidin-2-one] | 50 to 500 |
| C[C@@H](Nc1nccc(-c2cccc(-c3cc([C@]4(O)CCN(C)C4=O)on3)n2)n1)c1ccccn1 [Example 363, (R)-3-Hydroxy-1-methyl-3-(3-(6-(2-(((R)-1-(pyridin-2-yl)ethyl)amino)pyrimidin-4-yl)pyridin-2-yl)isoxazol-5-yl)pyrrolidin-2-one] | 50 to 500 |
| CN1CC[C@@](O)(c2cc(-c3cccc(-c4ccnc(NCCF)n4)n3)no2)C1=O [Example 364, (R)-3-(3-(6-(2-((2-Fluoroethyl)amino)pyrimidin-4-yl)pyridin-2-yl)isoxazol-5-yl)-3-hydroxy-1-methylpyrrolidin-2-one] | 50 to 500 |
| CN1CC[C@@](O)(c2cc(-c3cccc(-c4ccnc(NC5CCN(CC(F)F)C5)n4)n3)no2)C1=O (stereo partly drawn) [Example 365, (3R)-3-(3-(6-(2-((1-(2,2-Difluoroethyl)pyrrolidin-3-yl)amino)pyrimidin-4-yl)pyridin-2-yl)isoxazol-5-yl)-3-hydroxy-1-methylpyrrolidin-2-one] | > 500 |
| COCC1CC(Nc2nccc(-c3cccc(-c4cc([C@]5(O)CCN(C)C5=O)on4)n3)n2)CO1 (stereo partly drawn) [Example 366, (3R)-3-Hydroxy-3-(3-(6-(2-((5-(methoxymethyl)tetrahydrofuran-3-yl)amino)pyrimidin-4-yl)pyridin-2-yl)isoxazol-5-yl)-1-methylpyrrolidin-2-one] | 50 to 500 |
| CN1CC[C@@](O)(c2cc(-c3cccc(-c4ccnc(NCc5ccn(C)n5)n4)n3)no2)C1=O [Example 367, (R)-3-Hydroxy-1-methyl-3-(3-(6-(2-(((1-methyl-1H-pyrazol-3-yl)methyl)amino)pyrimidin-4-yl)pyridin-2-yl)isoxazol-5-yl)pyrrolidin-2-one] | 50 to 500 |
| CN1CC[C@@](O)(c2cc(-c3cccc(-c4ccnc(NCc5cnn(C)c5)n4)n3)no2)C1=O [Example 368, (R)-3-Hydroxy-1-methyl-3-(3-(6-(2-(((1-methyl-1H-pyrazol-4-yl)methyl)amino)pyrimidin-4-yl)pyridin-2-yl)isoxazol-5-yl)pyrrolidin-2-one] | 50 to 500 |
| C[C@@H](Nc1nccc(-c2cccc(-c3cc([C@]4(O)CCN(C)C4=O)on3)n2)n1)c1ncc[nH]1 [Example 369, (R)-3-(3-(6-(2-(((R)-1-(1H-Imidazol-2-yl)ethyl)amino)pyrimidin-4-yl)pyridin-2-yl)isoxazol-5-yl)-3-hydroxy-1-methylpyrrolidin-2-one] | > 500 |
| C[C@H](Nc1nccc(-c2cccc(-c3cc([C@]4(O)CCN(C)C4=O)on3)n2)n1)c1ncc[nH]1 [Example 370, (R)-3-(3-(6-(2-(((S)-1-(1H-Imidazol-2-yl)ethyl)amino)pyrimidin-4-yl)pyridin-2-yl)isoxazol-5-yl)-3-hydroxy-1-methylpyrrolidin-2-one] | > 500 |
| CC(Nc1nccc(-c2cccc(-c3cc([C@]4(O)CCN(C)C4=O)on3)n2)n1)c1ncco1 (stereo partly drawn) [Example 371, (3R)-3-Hydroxy-1-methyl-3-(3-(6-(2-((1-(oxazol-2-yl)ethyl)amino)pyrimidin-4-yl)pyridin-2-yl)isoxazol-5-yl)pyrrolidin-2-one] | 50 to 500 |
| CC(Nc1nccc(-c2cccc(-c3cc([C@]4(O)CCN(C)C4=O)on3)n2)n1)c1cnco1 (stereo partly drawn) [Example 372, (3R)-3-Hydroxy-1-methyl-3-(3-(6-(2-((1-(oxazol-5-yl)ethyl)amino)pyrimidin-4-yl)pyridin-2-yl)isoxazol-5-yl)pyrrolidin-2-one] | 50 to 500 |
| CC(Nc1nccc(-c2cccc(-c3cc([C@]4(O)CCN(C)C4=O)on3)n2)n1)c1cocn1 (stereo partly drawn) [Example 373, (3R)-3-Hydroxy-1-methyl-3-(3-(6-(2-((1-(oxazol-4-yl)ethyl)amino)pyrimidin-4-yl)pyridin-2-yl)isoxazol-5-yl)pyrrolidin-2-one] | 50 to 500 |
| C[C@H](Nc1nccc(-c2cccc(-c3cc([C@]4(O)CCN(C)C4=O)on3)n2)n1)c1cccnc1 [Example 374, (R)-3-Hydroxy-1-methyl-3-(3-(6-(2-(((S)-1-(pyridin-3-yl)ethyl)amino)pyrimidin-4-yl)pyridin-2-yl)isoxazol-5-yl)pyrrolidin-2-one] | 50 to 500 |
| C[C@@H](Nc1nccc(-c2cccc(-c3cc([C@]4(O)CCN(C)C4=O)on3)n2)n1)c1cccnc1 [Example 375, (R)-3-Hydroxy-1-methyl-3-(3-(6-(2-(((R)-1-(pyridin-3-yl)ethyl)amino)pyrimidin-4-yl)pyridin-2-yl)isoxazol-5-yl)pyrrolidin-2-one] | 50 to 500 |
| C[C@H](Nc1nccc(-c2cccc(-c3cc([C@]4(O)CCN(C)C4=O)on3)n2)n1)c1ccccn1 [Example 376, (R)-3-Hydroxy-1-methyl-3-(3-(6-(2-(((S)-1-(pyridin-2-yl)ethyl)amino)pyrimidin-4-yl)pyridin-2-yl)isoxazol-5-yl)pyrrolidin-2-one] | 50 to 500 |
| CC(Nc1nccc(-c2cccc(-c3cc([C@]4(O)CCN(C)C4=O)on3)n2)n1)c1ncccn1 (stereo partly drawn) [Example 377, (3R)-3-Hydroxy-1-methyl-3-(3-(6-(2-((1-(pyrimidin-2-yl)ethyl)amino)pyrimidin-4-yl)pyridin-2-yl)isoxazol-5-yl)pyrrolidin-2-one] | > 500 |
| CC(Nc1nccc(-c2cccc(-c3cc([C@]4(O)CCN(C)C4=O)on3)n2)n1)c1cn(C)cn1 (stereo partly drawn) [Example 378, (3R)-3-Hydroxy-1-methyl-3-(3-(6-(2-((1-(1-methyl-1H-imidazol-4-yl)ethyl)amino)pyrimidin-4-yl)pyridin-2-yl)isoxazol-5-yl)pyrrolidin-2-one] | 50 to 500 |
| Cc1cc(C(C)Nc2nccc(-c3cccc(-c4cc([C@]5(O)CCN(C)C5=O)on4)n3)n2)n[nH]1 (stereo partly drawn) [Example 379, (3R)-3-Hydroxy-1-methyl-3-(3-(6-(2-((1-(5-methyl-1H-pyrazol-3-yl)ethyl)amino)pyrimidin-4-yl)pyridin-2-yl)isoxazol-5-yl)pyrrolidin-2-one] | 50 to 500 |
| Cc1cc([C@@H](C)Nc2nccc(-c3cccc(-c4cc([C@]5(O)CCN(C)C5=O)on4)n3)n2)no1 [Example 380, (R)-3-Hydroxy-1-methyl-3-(3-(6-(2-(((R)-1-(5-methylisoxazol-3-yl)ethyl)amino)pyrimidin-4-yl)pyridin-2-yl)isoxazol-5-yl)pyrrolidin-2-one] | 50 to 500 |
| Cc1cnc(C(C)Nc2nccc(-c3cccc(-c4cc([C@]5(O)CCN(C)C5=O)on4)n3)n2)o1 (stereo partly drawn) [Example 381, (3R)-3-Hydroxy-1-methyl-3-(3-(6-(2-((1-(5-methyloxazol-2-yl)ethyl)amino)pyrimidin-4-yl)pyridin-2-yl)isoxazol-5-yl)pyrrolidin-2-one] | 50 to 500 |
| Cc1cc(C(C)Nc2nccc(-c3cccc(-c4cc([C@]5(O)CCN(C)C5=O)on4)n3)n2)on1 (stereo partly drawn) [Example 382, (3R)-3-Hydroxy-1-methyl-3-(3-(6-(2-((1-(3-methylisoxazol-5-yl)ethyl)amino)pyrimidin-4-yl)pyridin-2-yl)isoxazol-5-yl)pyrrolidin-2-one] | 50 to 500 |
| C[C@@H](Nc1nccc(-c2cccc(-c3cc([C@]4(O)CCN(C)C4=O)on3)n2)n1)c1cnnn1C [Example 383, (R)-3-Hydroxy-1-methyl-3-(3-(6-(2-(((R)-1-(1-methyl-1H-1,2,3-triazol-5-yl)ethyl)amino)pyrimidin-4-yl)pyridin-2-yl)isoxazol-5-yl)pyrrolidin-2-one] | 50 to 500 |
| C[C@H](Nc1nccc(-c2cccc(-c3cc([C@]4(O)CCN(C)C4=O)on3)n2)n1)c1cnnn1C [Example 384, (R)-3-Hydroxy-1-methyl-3-(3-(6-(2-(((S)-1-(1-methyl-1H-1,2,3-triazol-5-yl)ethyl)amino)pyrimidin-4-yl)pyridin-2-yl)isoxazol-5-yl)pyrrolidin-2-one] | 50 to 500 |
| Cc1nnc(C(C)Nc2nccc(-c3cccc(-c4cc([C@]5(O)CCN(C)C5=O)on4)n3)n2)o1 (stereo partly drawn) [Example 385, (3R)-3-Hydroxy-1-methyl-3-(3-(6-(2-((1-(5-methyl-1,3,4-oxadiazol-2-yl)ethyl)amino)pyrimidin-4-yl)pyridin-2-yl)isoxazol-5-yl)pyrrolidin-2-one] | 50 to 500 |
| CN1CC[C@@](O)(c2cc(-c3cccc(-c4ccnc(N[C@H](CO)c5ccccc5)n4)n3)no2)C1=O [Example 386, (R)-3-Hydroxy-3-(3-(6-(2-(((S)-2-hydroxy-1-phenylethyl)amino)pyrimidin-4-yl)pyridin-2-yl)isoxazol-5-yl)-1-methylpyrrolidin-2-one] | 50 to 500 |
| CN1CC[C@@](O)(c2cc(-c3cccc(-c4ccnc(N[C@@H](CO)c5ccccn5)n4)n3)no2)C1=O [Example 387, (R)-3-Hydroxy-3-(3-(6-(2-(((R)-2-hydroxy-1-(pyridin-2-yl)ethyl)amino)pyrimidin-4-yl)pyridin-2-yl)isoxazol-5-yl)-1-methylpyrrolidin-2-one] | > 500 |
